Converted amounts (≈) assume the structure as drawn. Like-named read-outs stand apart in the source and are kept apart here. Bounds are passed on as bounds.

A short description of data set [1]: Compound solubility in water. In kind it is physicochemical.
Another data set concerns the target T1, acid ceramidase (hACR) (Homo sapiens, UniProt Q13510).
T1 construct: expressed in transfected cells; cell lysate used
T1 sequence (Q13510 143-395 limits assumed): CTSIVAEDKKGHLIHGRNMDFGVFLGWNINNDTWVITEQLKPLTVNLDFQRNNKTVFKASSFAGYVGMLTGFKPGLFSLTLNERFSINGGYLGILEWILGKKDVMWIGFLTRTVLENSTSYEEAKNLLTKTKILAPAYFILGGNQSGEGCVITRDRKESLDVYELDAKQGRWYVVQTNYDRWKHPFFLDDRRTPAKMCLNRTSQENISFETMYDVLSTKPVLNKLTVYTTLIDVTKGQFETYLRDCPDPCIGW
T1 sequence (Q13510 22-142 limits assumed): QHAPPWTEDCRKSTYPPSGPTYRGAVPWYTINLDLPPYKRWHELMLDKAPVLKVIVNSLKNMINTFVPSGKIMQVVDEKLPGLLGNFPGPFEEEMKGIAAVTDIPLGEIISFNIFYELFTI
The data set is described as follows: Acid ceramidase inhibition, biochemical fluorescent assay with cell lysates overexpressing acid ceramidase, substrate Rbm14-12. The essentials:
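Enzyme source was lysate (10 µg protein) from cells overexpressing acid ceramidase, preincubated 1 hr at RT with compound dose series in 25 mM NaAc, 100 mM NaCl, pH 4.5. Rbm14-12 (6.3 μM final) reacted 1 hr at RT; stop buffer (methanol, NaIO4, glycine, pH 10.6) 1 hr, fluorescence ex360/em446; IC50 from four-parameter fit.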

Where [2] appears, read: cell lysates overexpressing acid ceramidase, 1 hr preincubation at RT, pH 4.5, substrate Rbm14-12 6.3 μM, read-out: hACR IC50.

Turning to `CC1(C)CC(c2ccccc2)CCN1C(=O)NCCCCc1ccccc1` (stereo not drawn) [Example 74, 2,2-Dimethyl-4-phenyl-N-(4-phenylbutyl)piperidine-1-carboxamide], the solubility (commonly how much of the substance goes into solution per volume) in data set [1] is 0.2 µM (≈ 0.0729 µg/mL). At acid ceramidase (hACR) (setting [2]), the IC50 (usually the concentration needed to halve the response being measured) was less than 0.2 µM.
For `CC1(C)CC(c2ccccc2)CCN1C(=O)NCCOCc1ccccc1` (stereo not drawn) [Example 75, N-(2-Benzyloxyethyl)-2,2-dimethyl-4-phenylpiperidine-1-carboxamide], in that order: 7.1 µM (≈ 2.6 µg/mL) and greater than 1 µM.
For `CCOCCNC(=O)N1CCC(c2ccccc2)CC1(C)C` (stereo not drawn) [Example 77, N-(2-Ethoxyethyl)-2,2-dimethyl-4-phenylpiperidine-1-carboxamide], the solubility in data set [1] worked out at 64.3 µM (≈ 19.6 µg/mL). Moreover, at acid ceramidase (hACR) (setting [2]), the IC50 is greater than 1 µM.
For `CC1(C)CC(c2ccccn2)CCN1C(=O)NCCCCc1ccccc1` (stereo not drawn) [Example 79, 2,2-Dimethyl-N-(4-phenylbutyl)-4-(2-pyridyl)piperidine-1-carboxamide], in that order: 6.4 µM (≈ 2.34 µg/mL) and greater than 1 µM.
For `CC1(C)CC(N2CCCCC2)CCN1C(=O)NCCCCc1ccccc1` (stereo not drawn) [Example 83, 2,2-Dimethyl-N-(4-phenylbutyl)-4-(1-piperidyl)piperidine-1-carboxamide], in that order: greater than 100 µM and less than 0.2 µM.
In data set [1], `CC1(C)CC(N2CCC(F)(F)CC2)CCN1C(=O)NCCCCc1ccccc1` (stereo not drawn) [Example 86, 4-(4,4-Difluoro-1-piperidyl)-2,2-dimethyl-N-(4-phenylbutyl)piperidine-1-carboxamide] returned a solubility of 31 µM (≈ 12.6 µg/mL). On acid ceramidase (hACR) (setting [2]), the IC50 is less than 0.2 µM.
Taken in the same sequence, the figures for `CN(c1ccccc1)C1CCN(C(=O)NCCCCc2ccccc2)C(C)(C)C1.Cl` (stereo not drawn) [Example 88, 2,2-Dimethyl-4-(N-methylanilino)-N-(4-phenylbutyl)piperidine-1-carboxamide hydrochloride] were 0.01 µM and greater than 1 µM.
`CC1(C)CC(Oc2ccccc2)CCN1C(=O)NCCCCc1ccccc1` (stereo not drawn) [Example 89, 2,2-Dimethyl-4-phenoxy-N-(4-phenylbutyl)piperidine-1-carboxamide] showed a solubility in data set [1] of 0.01 µM (≈ 0.00381 µg/mL). Besides, the IC50 at acid ceramidase (hACR) (setting [2]) is less than 0.2 µM.
Taken in the same sequence, the figures for `CCCCCNC(=O)N1[C@H](C)CN(C2CC2)C[C@@H]1C` [Example 115, (2S,6R)-4-cyclopropyl-2,6-dimethyl-N-pentylpiperazine-1-carboxamide] were 69.1 µM (≈ 18.5 µg/mL) and less than 0.2 µM.
In turn, `CCCCCNC(=O)N1C(C)COCC1(C)C` (stereo not drawn) [Example 132, 3,3,5-Trimethyl-N-pentylmorpholine-4-carboxamide] came in with a solubility in data set [1] of 88.3 µM (≈ 21.4 µg/mL). Further, the IC50 at acid ceramidase (hACR) (setting [2]) was less than 0.2 µM.
Taken in the same sequence, the figures for `CCCCCNC(=O)N1C(c2ccc(F)cc2)COCC1(C)C` (stereo not drawn) [Example 137, 5-(4-Fluorophenyl)-3,3-dimethyl-N-pentylmorpholine-4-carboxamide] were 93 µM (≈ 30 µg/mL) and less than 0.2 µM.
On to `COc1ccc(C2COCC(C)(C)N2C(=O)NCC2CC2)cc1` (stereo not drawn) [Example 144, N-(Cyclopropylmethyl)-5-(4-methoxyphenyl)-3,3-dimethylmorpholine-4-carboxamide], for which the concentration in solution in data set [1] (solubility) came to 97.8 µM (≈ 31.1 µg/mL). Further, at acid ceramidase (hACR) (setting [2]), the IC50 was less than 0.2 µM.
In data set [1], `COc1ccc(C2COCC(C)(C)N2C(=O)NCC2CCOCC2)cc1` (stereo not drawn) [Example 145, 5-(4-Methoxyphenyl)-3,3-dimethyl-N-(tetrahydropyran-4-ylmethyl)morpholine-4-carboxamide] showed a solubility of 91.3 µM (≈ 33.1 µg/mL). At acid ceramidase (hACR), the IC50 fell in the range of 0.2 to 1 µM.
`COc1ccc(C2COCC(C)(C)N2C(=O)NCCC(F)(F)F)cc1` (stereo not drawn) [Example 153, 5-(4-Methoxyphenyl)-3,3-dimethyl-N-(3,3,3-trifluoropropyl)morpholine-4-carboxamide]: the concentration in solution in data set [1] (solubility) came to 79.2 µM (≈ 28.5 µg/mL). Besides, the IC50 on acid ceramidase (hACR) (setting [2]) is 0.2 to 1 µM.
As to `COc1ccc(C2COCC(C)(C)N2C(=O)NCCF)cc1` (stereo not drawn) [Example 154, N-(2-Fluoroethyl)-5-(4-methoxyphenyl)-3,3-dimethylmorpholine-4-carboxamide], in data set [1], the concentration in solution (solubility) came to 92.9 µM (≈ 28.8 µg/mL). On acid ceramidase (hACR) (setting [2]), the IC50 fell in the range of 0.2 to 1 µM.
Taken in the same sequence, the figures for `CCCCCNC(=O)N1C(c2ccc(OC)cc2)COCC1(C)C` (stereo not drawn) [Example 156, 5-(4-Methoxyphenyl)-3,3-dimethyl-N-pentylmorpholine-4-carboxamide] were 91 µM (≈ 30.4 µg/mL) and less than 0.2 µM.
For `COc1ccc(C2COCC(C)(C)N2C(=O)NCCOCC2CC2)cc1` (stereo not drawn) [Example 157, N-[2-(Cyclopropylmethoxy)ethyl]-5-(4-methoxyphenyl)-3,3-dimethylmorpholine-4-carboxamide], in that order: greater than 100 µM and less than 0.2 µM.
For `CN1CC(c2ccccc2)N(C(=O)NCCCCc2ccccc2)C(C)(C)C1` (stereo not drawn) [Example 165, 2,2,4-Trimethyl-6-phenyl-N-(4-phenylbutyl)piperazine-1-carboxamide], in that order: 71.6 µM (≈ 27.2 µg/mL) and less than 0.2 µM.

Values taken from patent publication US20220380314A1, “SUBSTITUTED, SATURATED AND UNSATURATED N-HETEROCYCLIC CARBOXAMIDES AND RELATED COMPOUNDS FOR THEIR USE IN THE TREATMENT OF MEDICAL DISORDERS” (Bial - R&D Investments, S.A., priority 2019, published 2022).
